We go through 23 compounds from patent publication US12624018B1, “Inhibitors of RIPK2 and medical uses thereof” (Odyssey Therapeutics, Inc., priority 2022, dated 2026).

For one assay, the target named is T1, RIPK2 enzyme (Homo sapiens, UniProt O43353).
T1 construct: purchased Carna 09-128
Put plainly: RIPK2 inhibition (ADP-Glo Kinase Assay). It is filed as biochemical. The conditions noted are these: RIPK2 5 nM, ATP 150 μM, MBP substrate, read-out: RIPK2 IC50. The method in brief: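 Swine MBP substrate; compound and 5 nM RIPK2 first mixed for 30 min at room temperature; buffer pH 7.5 HEPES 50 mM with 10 mM MgCl2, 2 mM DTT, 1 mM EGTA, Brij-35, BSA.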
For orientation: ADP-Glo first removes unused ATP, then detects ADP through luciferase.

A further assay relates to human NOD2 signaling. Nature of the assay: Inhibition of human NOD2 signaling in HEK-Blue-hNOD2 cells (L18-MDP stimulated, SEAP reporter). The class given is cell-based. The conditions noted are these: Homo sapiens, HEK-Blue hNOD2, HEK-Blue-hNOD2 cells, NOD2 ligand stimulation, SEAP reporter; read-out: hNOD2 IC50. The method in brief:
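Read-out is SEAP absorbance at 620 nm after 3 h QUANTI-Blue development of supernatant from HEK293 cells carrying NOD2 and a SEAP reporter (12500/well). Cells got compound (10 points, 3-fold dilutions) and 0.5 ng/mL L18-MDP for 24 h at 37 °C; percent inhibition vs stimulated/unstimulated controls, 4-parameter IC50.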

Structures are written as SMILES. Some results are limits rather than exact numbers.

T1 sequence (O43353 1-299 limits assumed): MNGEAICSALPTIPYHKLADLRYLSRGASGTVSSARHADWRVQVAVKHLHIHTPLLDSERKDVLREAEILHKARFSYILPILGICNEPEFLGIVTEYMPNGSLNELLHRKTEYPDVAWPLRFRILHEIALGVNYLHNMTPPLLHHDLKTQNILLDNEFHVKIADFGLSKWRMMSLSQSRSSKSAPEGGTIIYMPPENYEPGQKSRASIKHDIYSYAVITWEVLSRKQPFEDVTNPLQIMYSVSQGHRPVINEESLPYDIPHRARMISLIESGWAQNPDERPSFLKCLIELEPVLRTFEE

For the compound `CNC(=O)c1ccc2nccc(Oc3c(C)cc(CC(=O)Nc4cnn(C56CC(C5)C6)c4)cc3C)c2c1` [Compound 588, 4-(4-(2-((1-(bicyclo[1.1.1]pentan-1-yl)-1H-pyrazol-4-yl)amino)-2-oxoethyl)-2,6-dimethylphenoxy)-N-methylquinoline-6-carboxamide], the half-inhibitory concentration (IC50) was less than 2.5 nM on RIPK2 enzyme and 36 nM in the assay with human NOD2 signaling.
On the same counts, the results for `[2H]C([2H])([2H])NC(=O)c1ccc2nccc(Oc3c(C)cc(CC(=O)Nc4cnn(C56CC(C5)C6)c4)cc3C)c2c1` [Compound 589, 4-(4-(2-((1-(bicyclo[1.1.1]pentan-1-yl)-1H-pyrazol-4-yl)amino)-2-oxoethyl)-2,6-dimethylphenoxy)-N-(methyl-d3)quinoline-6-carboxamide] are less than 2.5 nM and 48.6 nM.
The like results for `Cc1cc(CC(=O)Nc2cnn(C34CC(C3)C4)c2)cc(Cl)c1Oc1ccnc2ccc(C(N)=O)cc12` [Compound 590, 4-(4-(2-((1-(bicyclo[1.1.1]pentan-1-yl)-1H-pyrazol-4-yl)amino)-2-oxoethyl)-2-chloro-6-methylphenoxy)quinoline-6-carboxamide] were, in that order, less than 2.5 nM and 31.2 nM.
As to `CNC(=O)c1ccc2nccc(Oc3c(C)cc(CC(=O)Nc4cnn(C56CC(C5)C6)c4)cc3Cl)c2c1` [Compound 591, 4-(4-(2-((1-(bicyclo[1.1.1]pentan-1-yl)-1H-pyrazol-4-yl)amino)-2-oxoethyl)-2-chloro-6-methylphenoxy)-N-methylquinoline-6-carboxamide], the IC50 was less than 2.5 nM on RIPK2 enzyme and 46.7 nM with human NOD2 signaling.
With `[2H]C([2H])([2H])NC(=O)c1ccc2nccc(Oc3c(C)cc(CC(=O)Nc4cnn(C56CC(C5)C6)c4)cc3Cl)c2c1` [Compound 592, 4-(4-(2-((1-(bicyclo[1.1.1]pentan-1-yl)-1H-pyrazol-4-yl)amino)-2-oxoethyl)-2-chloro-6-methylphenoxy)-N-(methyl-d3)quinoline-6-carboxamide], the figures for the IC50 at RIPK2 enzyme and with human NOD2 signaling were 2.8 nM and 80.2 nM, respectively.
On the same counts, the results for `[2H]C([2H])([2H])C(n1cc(NC(=O)Cc2cc(C)c(Oc3ccnc4cc(F)c(C(=O)NC)cc34)cc2F)cn1)(C([2H])([2H])[2H])C([2H])([2H])[2H]` [Compound 596, 7-fluoro-4-(5-fluoro-2-methyl-4-(2-((1-(2-(methyl-d3)propan-2-yl-1,1,1,3,3,3-d6)-1H-pyrazol-4-yl)amino)-2-oxoethyl)phenoxy)-N-methylquinoline-6-carboxamide] are less than 2.5 nM and 0.7 nM.
As to `[2H]C([2H])([2H])C(n1cc(NC(=O)Cc2ccc(Oc3ccnc4ccc(S(C)(=O)=O)cc34)c(C)c2)cn1)(C([2H])([2H])[2H])C([2H])([2H])[2H]` [Compound 597, 2-(3-methyl-4-((6-(methylsulfonyl)quinolin-4-yl)oxy)phenyl)-N-(1-(2-(methyl-d3)propan-2-yl-1,1,1,3,3,3-d6)-1H-pyrazol-4-yl)acetamide], the IC50 on RIPK2 enzyme was less than 2.5 nM; in the assay with human NOD2 signaling it was 1.3 nM.
With `Cc1cc(CC(=O)Nc2cnn(C(C)(C)C)c2)cc(F)c1Oc1ccnc2cc(F)c(C(N)=O)cc12` [Compound 598, 4-(4-(2-((1-(tert-butyl)-1H-pyrazol-4-yl)amino)-2-oxoethyl)-2-fluoro-6-methylphenoxy)-7-fluoroquinoline-6-carboxamide], the values for the IC50 at RIPK2 enzyme and in the assay with human NOD2 signaling were less than 2.5 nM and 2.3 nM, respectively.
On the same counts, the results for `CNC(=O)c1cc2c(Oc3c(C)cc(CC(=O)Nc4cnn(C(C)(C)C)c4)cc3F)ccnc2cc1F` [Compound 599, 4-(4-(2-((1-(tert-butyl)-1H-pyrazol-4-yl)amino)-2-oxoethyl)-2-fluoro-6-methylphenoxy)-7-fluoro-N-methylquinoline-6-carboxamide] are less than 2.5 nM and 1.7 nM.
The like results for `[2H]C([2H])([2H])NC(=O)c1cc2c(Oc3c(C)cc(CC(=O)Nc4cnn(C(C)(C)C)c4)cc3F)ccnc2cc1F` [Compound 600, 4-(4-(2-((1-(tert-butyl)-1H-pyrazol-4-yl)amino)-2-oxoethyl)-2-fluoro-6-methylphenoxy)-7-fluoro-N-(methyl-d3)quinoline-6-carboxamide] were, in that order, less than 2.5 nM and 1.4 nM.
Take `[2H]C([2H])([2H])C(n1cc(NC(=O)Cc2cc(C)c(Oc3ccnc4cc(F)c(C(=O)NC)cc34)c(F)c2)cn1)(C([2H])([2H])[2H])C([2H])([2H])[2H]` [Compound 601, 7-fluoro-4-(2-fluoro-6-methyl-4-(2-((1-(2-(methyl-d3)propan-2-yl-1,1,1,3,3,3-d6)-1H-pyrazol-4-yl)amino)-2-oxoethyl)phenoxy)-N-methylquinoline-6-carboxamide]: the IC50 at RIPK2 enzyme was less than 2.5 nM; with human NOD2 signaling, 1.4 nM.
Regarding `Cc1cc(CC(=O)Nc2cnn(C(C)(C)C)c2)cc(F)c1Oc1ccnc2cc(Cl)c(C(N)=O)cc12` [Compound 602, 4-(4-(2-((1-(tert-butyl)-1H-pyrazol-4-yl)amino)-2-oxoethyl)-2-fluoro-6-methylphenoxy)-7-chloroquinoline-6-carboxamide], the IC50 at RIPK2 enzyme is less than 2.5 nM; in the assay on human NOD2 signaling, 8 nM.
For the compound `Cc1cc(CC(=O)Nc2cnn(C(C)(C)C)c2)ccc1Oc1ccnc2ccc(C3(C(N)=O)CC3)cc12` [Compound 603, 1-(4-(4-(2-((1-(tert-butyl)-1H-pyrazol-4-yl)amino)-2-oxoethyl)-2-methylphenoxy)quinolin-6-yl)cyclopropane-1-carboxamide], the IC50 on RIPK2 enzyme is less than 2.5 nM; in the assay with human NOD2 signaling it was 2.5 nM.
Regarding `Cc1cc(CC(=O)Nc2cnn(C(C)(C)C)c2)ccc1Oc1ccnc2ccc(C3(C(N)=O)CCC3)cc12` [Compound 604, 1-(4-(4-(2-((1-(tert-butyl)-1H-pyrazol-4-yl)amino)-2-oxoethyl)-2-methylphenoxy)quinolin-6-yl)cyclobutane-1-carboxamide], the IC50 was less than 2.5 nM at RIPK2 enzyme and 12.4 nM in the assay on human NOD2 signaling.
As to `Cc1cc(CC(=O)Nc2cnn(C(C)(C)C)c2)ccc1Oc1ccnc2ccc(C3(S(C)(=O)=O)CC3)cc12` [Compound 605, N-(1-(tert-butyl)-1H-pyrazol-4-yl)-2-(3-methyl-4-((6-(1-(methylsulfonyl)cyclopropyl)quinolin-4-yl)oxy)phenyl)acetamide], the IC50 on RIPK2 enzyme is less than 2.5 nM; with human NOD2 signaling, 15.6 nM.
The like results for `Cc1c(Oc2ccnc3ccc(C4(C(N)=O)CCC4)cc23)cc(F)c(CC(=O)Nc2cnn(C(C)(C)C)c2)c1F` [Compound 606, 1-(4-(4-(2-((1-(tert-butyl)-1H-pyrazol-4-yl)amino)-2-oxoethyl)-3,5-difluoro-2-methylphenoxy)quinolin-6-yl)cyclobutane-1-carboxamide] were, in that order, 3.8 nM and 0.8 nM.
The like results for `Cc1c(Oc2ccnc3ccc(C4(S(C)(=O)=O)CC4)cc23)cc(F)c(CC(=O)Nc2cnn(C(C)(C)C)c2)c1F` [Compound 607, N-(1-(tert-butyl)-1H-pyrazol-4-yl)-2-(2,6-difluoro-3-methyl-4-((6-(1-(methylsulfonyl)cyclopropyl)quinolin-4-yl)oxy)phenyl)acetamide] were, in that order, 3.5 nM and 6.1 nM.
As for `[2H]C([2H])([2H])C(n1cc(NC(=O)Cc2cc(C)c(Oc3ccnc4cc(F)c(C(N)=O)cc34)c(F)c2)cn1)(C([2H])([2H])[2H])C([2H])([2H])[2H]` [Compound 608, 7-fluoro-4-(2-fluoro-6-methyl-4-(2-((1-(2-(methyl-d3)propan-2-yl-1,1,1,3,3,3-d6)-1H-pyrazol-4-yl)amino)-2-oxoethyl)phenoxy) quinoline-6-carboxamide], the half-inhibitory concentration (IC50) came out at 2.5 nM at RIPK2 enzyme and 1.6 nM in the assay with human NOD2 signaling.
On to `Cc1c(Oc2ccnc3cc(F)c(C(N)=O)cc23)ccc(CC(=O)Nc2cnn(C(C)(C)C)c2)c1C#N` [Compound 610, 4-(4-(2-((1-(tert-butyl)-1H-pyrazol-4-yl)amino)-2-oxoethyl)-3-cyano-2-methylphenoxy)-7-fluoroquinoline-6-carboxamide], for which the IC50 on RIPK2 enzyme is less than 2.5 nM; in the assay with human NOD2 signaling, 2.1 nM.
On the same counts, the results for `CNC(=O)c1cc2c(Oc3ccc(CC(=O)Nc4cnn(C(C)(C)C)c4)c(C#N)c3C)ccnc2cc1F` [Compound 611, 4-(4-(2-((1-(tert-butyl)-1H-pyrazol-4-yl)amino)-2-oxoethyl)-3-cyano-2-methylphenoxy)-7-fluoro-N-methylquinoline-6-carboxamide] are less than 2.5 nM and 0.9 nM.
On the same counts, the results for `Cc1nc(CC(=O)Nc2cnn(C(C)(C)C)c2)ccc1Oc1ccnc2cc(F)c(C(N)=O)cc12` [Compound 612, 4-((6-(2-((1-(tert-butyl)-1H-pyrazol-4-yl)amino)-2-oxoethyl)-2-methylpyridin-3-yl)oxy)-7-fluoroquinoline-6-carboxamide] are less than 2.5 nM and 3.6 nM.
In the case of `CNC(=O)c1cc2c(Oc3ccc(CC(=O)Nc4cnn(C(C)(C)C)c4)nc3C)ccnc2cc1F` [Compound 613, 4-((6-(2-((1-(tert-butyl)-1H-pyrazol-4-yl)amino)-2-oxoethyl)-2-methylpyridin-3-yl)oxy)-7-fluoro-N-methylquinoline-6-carboxamide], the IC50 at RIPK2 enzyme is less than 2.5 nM; in the assay on human NOD2 signaling it was 4.6 nM.
In the case of `[2H]C([2H])([2H])NC(=O)c1cc2c(Oc3ccc(CC(=O)Nc4cnn(C(C)(C)C)c4)nc3C)ccnc2cc1F` [Compound 614, 4-((6-(2-((1-(tert-butyl)-1H-pyrazol-4-yl)amino)-2-oxoethyl)-2-methylpyridin-3-yl)oxy)-7-fluoro-N-(methyl-d3)quinoline-6-carboxamide], the IC50 on RIPK2 enzyme is less than 2.5 nM; with human NOD2 signaling, 3.7 nM.

What is called IC50 is the point on the concentration scale where inhibition reaches its midpoint.
